Laboratory results taken from patent US20130195926A1, “MODULATION OF NITRIC OXIDE SIGNALING TO NORMALIZE TUMOR VASCULATURE” (The General Hospital Corporation, priority 2007, published 2013).

What was measured:
HIF-1α = experiment: Western blot of HIF-1α expression in U87 tumors; format: in vivo; conditions: for HIF-1α protein levels, % of that in U87MG tumors: Western blot; for hypoxia inducible factor-1α (HIF-1α) protein levels: compared to U87MG tumors
Method: FIGS. 9A-E show the effect of nNOS silencing in U87 gliomas on tumor tissue oxygenation. Tissues shown in (A) were harvested and stained after injection of pimonidazole (60 mg/kg), followed by biotinylated lectin. Confocal laser scanning microscopy images (top row) of Hypoxyprobe™-1 adducts stained hypoxic cells (red), lectin-bound perfused blood vessels (green) and nuclei (blue) in U87MG, U87-shRNA58, and […] are 630 μm across. Binarized images (bottom row) of above confocal images. Bar indicates 100 μm. (B-C) Quantification of vessel segments (B) and vessel perimeter (C). (D) Quantification of hypoxic area. n=7, 3, 4 respectively. *p<0.05, as compared to U87MG tumors. (E) Western blot analysis of HIF-1α expression in U87MG and nNOS-snRNA-transfected U87 tumors. HIF-1α protein levels in U87-shRNA58 and U87-shRNA150 tumors were 46% and 59% of that in U87MG tumors, respectively. FIGS. 10A-C show the effect of nNOS silencing in U87 gliomas on fractionated radiation therapy. (A) Tumor growth normalized to day 0 tumor volume. (B) Tumor growth delay evaluated at the levels of 2, 4, and 6 times Vo. *P<0.05 as compared to U87MG. (C) Kaplan-Meier survival plot. U87 control (n=9), sh58 control (n=7), sh150 control (n=9), U87 radiation (n=8), sh58 radiation (n=6), sh150 radiation (n=10). FIGS. 11A-D show in vitro radiosensitivity and post-radiation tumor vasculature in U87 tumors. (A) Intrinsic tumor cell radiosensitivity was evaluated with the clonogenic assay. Following irradiation, the cells were incubated 9-13 d for colony formation depending on the dose administered. The surviving fractions were corrected for initial and final multiplicities determined 4-6 h after plating and at the time of irradiation. Data are expressed as mean±s.d. (B-D) When U87MG and nNOS-silenced U87 tumors grown in the hindleg in Rag-1^−/− mice reached ˜100 mm^3 they received 8 Gy/d for 3 d. […] (C-D) Quantification of the number of vessel segments (C) and vessel perimeter (D). […]
Equal amounts of 60 micrograms of protein per sample were separated on 7.5% SDS polyacrylamide gels, transferred onto polyvinylidene fluoride membrane (Millipore), incubated with primary antibodies followed by secondary antibodies (the same antibodies used in immunohistochemistry studies. See Immunohistochemistry methods below), and detected using enhanced chemiluminescence (GE Healthcare) by exposure on autoradiography films (Kodak) (Xu, L., et al. 2005 Cancer Res. 65, 5711-5719; Canneliet, P., et al. 1998 Nature 394, 485-490; Xu, L., et al. 2002 Journal of Biological Chemistry 277, 11368-11374 (2002); and Xu, L., et al. 2004 Clinical Cancer Research 10, 701-707).
The extent of hypoxia was determined in U87MG, U87-shRNA58, and U87-shRNA150 tumors utilizing a redox marker pimonidazole (Hypoxyprobe™-1 Kit, Millipore). […]

U87 tumors = experiment: Pimonidazole hypoxia staining and vessel density in U87 tumors grown in the hind leg; format: in vivo, mice; conditions: for positive staining for hypoxia (Hypoxyprobe-1 adducts): subcutaneous hind leg tumors ~100 mm3, Rag-1-/- mice; for vessel density: subcutaneous hind leg tumors, compared to U87MG tumors
Method: To evaluate tumor hypoxia, a hypoxia marker pimonidazole was used (Winkler, F., et al. 2004 Cancer Cell 6, 553-563). Briefly, when tumors grown in the hindleg reached about 100 mm^3, 60 mg/kg pimonidazole was injected i.v. into the mice bearing subcutaneous tumors (100 mm^3) 1 hr before perfusion fixation following biotinylated lectin injection. Blood vessels were stained with a Alexa 488-conjugated streptavidin (Vector Laboratory). Pimonidazole-adducts in hypoxic cells were detected using Hypoxyprobe-1 kit (Millipore) stained with tetramethylrhodamine isothiocyanate (TRITC)-conjugated goat antibody to mouse IgG. Cell nuclei were counter-stained by 4,6-diamidino-2-phenylindole (DAPI). Fluorescent images were taken using confocal laser-scanning microscopy, and vessel density and the pimonidazole-positive hypoxic area were determined using NIH image 1.63 macro (Winkler, F., et al. 2004 Cancer Cell 6, 553-563).
The macro identified TRITC-pimonidazole positive area and Alexa 488-positive perfused vessel area and binarized them at the same threshold. The percent of pimonidazole positive area to the total area was determined, and then the number and the perimeters of the binarized vascular areas were quantified on image J software. These parameters were determined in three-five photographic areas from each tumor (630×630 μm^2 each).
The extent of hypoxia was determined in U87MG, U87-shRNA58, and U87-shRNA150 tumors utilizing a redox marker pimonidazole (Hypoxyprobe™-1 Kit, Millipore). To determine the level of hypoxia during a commonly used experimental radiation treatment, tumors were grown to ˜100 mm^3 subcutaneously in the hind leg of Rag-1^−/− mice. […] In nNOS silenced U87-shRNA58 tumors (U87-shRNA58 and U87-shRNA150), most of tumor cells have blood vessels in close proximity, and positive staining for hypoxia was hardly seen (FIG. 9A). In agreement with previous intravital observations in the cranium, increased vessel density was found in U87-shRNA58 and U87-shRNA150 tumors, as compared to U87MG tumors (FIG. 9B-C). Improved vascular morphology and function induced by the selective vascular localization of NO alleviate tumor tissue hypoxia (FIG. 9D). A reduction in hypoxia inducible factor-1α (HIF-1α) protein levels was also observed in the U87-shRNA58 and U87-shRNA150 tumors, as compared to U87MG tumors (FIG. 9E).

Substance	HIF-1α protein levels, % of that in U87MG tumors (HIF-1α)	hypoxia inducible factor-1α (HIF-1α) protein levels (HIF-1α)	positive staining for hypoxia (Hypoxyprobe-1 adducts) (U87 tumors)	vessel density (U87 tumors)
shRNA58: short-hairpin RNA for nNOS, CAAAGAGATCGACACCATC (sense), GATGGTGTCGATCTCTTTGTT (antisense), in pSilencer 3.1 H-1-hygro, stably transfected into U87MG	46%	reduction	hardly seen	increased
shRNA150: short-hairpin RNA for nNOS, GGTCTATCCAATGTCCACA (sense), TGTGGACATTGGATAGACCTT (antisense), in pSilencer 3.1 H-1-hygro	59%	reduction	hardly seen	increased
